Source: patent publication US6368785B1 (Global Hemostasis Institute MGR AB, priority 1997, dated 2002)
Where a name gives a salt, the structure may show the parent alone. Read-outs that look alike come from different tables or passages of the source. Values belong to the compound of their own block, whether it stands above or below them.

Legend:
[1] = cited from earlier work
[2] = apparent dissociation constant of putative Ca*ligand complex from potentiometric Ca^2+ activity; format: physicochemical; settings: 20 mM Hepes, pH 7.0 to 7.6, dilutions with 0.15 mM of NaCl, average of n determinations; for Kd: read-out: kd ± S.D.
Method: Bovine plasma deficient in vitamin K dependent coagulation factors and thromboplastin from rabbit brain were the corresponding components from PK-reagent GHI 129 detailed above. Ca^2+ activity and pH in plasma were determined potentiometrically with an ICA 2 (Radiometer, Copenhagen, Denmark) apparatus.
In order to identify compounds that could function as buffers for Ca^2+ at physiological levels, i.e. at about 1.3 mM of Ca^2+, water soluble compounds, either with reported dissociation constants in the range of 0.5 to 5 mM or otherwise appearing interesting, were experimentally investigated. Below, these compounds are referred to as Ca^2+ ligands or simply ligands. Experiments described below were performed to deduce the apparent dissociation constants under physiological like conditions and at ligand concentrations meaningful for Ca^2+ buffering.
Solution of 200 mM of ligand containing 20 mM of Hepes was adjusted to pH 7.4 and mixed with an equal volume of 100 mM of CaCl2 solution. These mixtures were diluted 1:2, 1:4, 1:8 and 1:16 with […]. […] From the experimentally determined Ca^2+ activity and the stoikiometric levels of ligand and Ca^2+, the apparent dissociation constant for a putative Ca*ligand complex was determined as the average of all available data.

[3] = test system: prothrombin complex (coagulation factors VII, X and II); experiment: coagulation time in prothrombin complex (PK) system with added citrate or iso-citrate; format: biochemical
Method: Activated partial thromboplastin time (APTT), prothrombin time (PT), prothrombin complex, (PK), assay, factor VIII and fibrin D-dimer were determined in compliance with manufacturers recommendations using the following reagents; PTT Automate, Diagnostica Stago, Asnieres-sur-Seine, France; Thromborel® S, Behring Diagnostics GmbH, Marburg, Germany; PK-reagent GHI 129, Global Hemostasis Institute MGR, Linköping, Sweden; and Coamatic® Factor VIII, Chromogenix, Mölndal, Sweden. The tests were performed on an Automated Coagulation Laboratory instrument, ACL, model 810 (Instrumentation Laboratory, Milan, Italy).
Coagulation analysis of blood and blood plasma are performed in many different ways. Most such analysis have the following in common. […] This Ca^2+ buffer capacity was determined in a system composed of sample, bovine plasma deficient in vitamin K dependent coagulation factors and rabbit brain thromboplastin. […] For each level of addition, the calcium ion buffering capacity of the analytical system was determined. The buffer capacity was determined at Ca^2+ activity in the range of 1 to 4 mM.
The assay response of the system described in Example 5 is investigated. […] The coagulation time is recorded. And after compacting of the coagulum by centrifugation for 3 minutes at 10,000×g, the Ca2+ activity is determined. […]

[4] = addition of CaCl2 solution to anti-coagulant solutions to reach physiological Ca^2+; format: physicochemical; settings: solutions of the Ca^2+ binding substance plus CaCl2
Description: This gave rise to the idea that these substances could perform as anticoagulants also at near physiological levels of Ca^2+ activity. […] This was possible with iso-citrate but not with citrate. […] The following therefore only describes experiments with iso-citrate.

[5] = in 0.1 M KNO3, read-out: published estimate
[6] = prior art, at physiological conditions
[7] = in 0.1 M NaClO4, read-out: published estimate

Kd [2]: 0.5 ± 0.05 mM | making solutions with physiological levels of Ca^2+ by adding CaCl2 solution [4]: formed precipitates
Structure (SMILES): O=C(O)CC(O)(CC(=O)O)C(=O)O [citrate, Tri-sodium citrate]
Kd ([1]; medium not given, read-out: published estimate): 0.58 mM | Kd ([1]; prior art, at physiological conditions, read-out: apparent dissociation constant of Ca^2+ complexes): ~0.4 mM | inhibition of coagulation (coagulation time) in PK system ([3]; 5, 10 or 20 mM added, Ca^2+ activity 0.7 to 9 mM): inhibit coagulation at all Ca^2+ activity levels | inhibitory effect on coagulation time per molar unit, citrate versus iso-citrate ([3]; Ca^2+ activity of 1.5, FIG. 8): about twice as inhibitory as iso-citrate per molar unit

Kd [2]: 29 ± 12 mM
Structure (SMILES): O=C(O)CNCC(=O)O [iminodiacetate]
Kd ([1]; in 1 M KNO3, read-out: published estimate): 8.1 mM

kd ± S.D. [2]: oxalate (precipitated)
Structure (SMILES): O=C(O)C(=O)O [oxalate, oxalic acid]
Kd [1, 5]: 5 mM | apparent dissociation constant of Ca^2+ complexes [1, 6]: considerably tighter

Kd [2]: 26 ± 73 mM
Structure (SMILES): O=C(O)c1ccccc1C(=O)O [phthalate, phthalic acid]
Kd ([1]; in 0.1 M KCl, read-out: published estimate): 3.9 mM

Kd [2]: 22 ± 53 mM
Structure (SMILES): O=C(O)CC(CC(=O)O)C(=O)O [tricarballylate, tricarballylic acid]

Further lines, the compound ahead of its results:

Structure (SMILES): Nc1nc(N)c2[nH]cnc2n1 [2,6-diaminopurine]
Kd [1, 5]: 1.6 mM | Kd [2]: 50 ± 24 mM

Structure (SMILES): O=C(O)CN(CCN(CC(=O)O)CC(=O)O)CC(=O)O [EDTA]
apparent dissociation constant of Ca^2+ complexes [1, 6]: considerably tighter

Structure (SMILES): Nc1ncnc2nc[nH]c12 [adenine]
Kd [1, 5]: 1.1 mM | Kd [2]: 70 ± 40 mM

Structure (SMILES): CC(C)(C(=O)O)C(=O)O [dimethylmalonate, dimethylmalonic acid]
Kd [1, 7]: 30.2 mM

Structure (SMILES): CC(C(=O)O)C(=O)O [methylmalonate, methylmalonic acid]
Kd [1, 7]: 22.4 mM | Kd [2]: 22 ± 3 mM

Structure (SMILES): O=C(O)/C=C(\CC(=O)O)C(=O)O [trans-aconitate, trans-aconitic acid]
Kd [2]: 29 ± 53 mM
